Values belong to the compound of their own block, whether it stands above or below them.
What was measured:
Arp2/3 complex (yeast) [1] = biological target: Arp2/3 complex (yeast) (Saccharomyces cerevisiae, UniProt P32381+P47117, P47117:G358Y); test: fluorescence increase titration, one-site fit; type: binding
Arp2/3 complex (yeast) [2] = biological target: Arp2/3 complex (yeast) (Saccharomyces cerevisiae, UniProt P32381+P47117); test: fluorescence increase titration, one-site fit; type: binding
Arp2/3 complex (yeast) [3] = biological target: Arp2/3 complex (yeast) (Saccharomyces cerevisiae, UniProt P32381+P47117, P32381:D10A); test: fluorescence increase titration, one-site fit; type: binding
Arp2/3 complex (yeast) [4] = biological target: Arp2/3 complex (yeast) (Saccharomyces cerevisiae, UniProt P32381+P47117, P47117:D12A); test: fluorescence increase titration, one-site fit; type: binding
Arp2/3 complex (yeast) [5] = biological target: Arp2/3 complex (yeast) (Saccharomyces cerevisiae, UniProt P32381+P47117, P32381:Y309A); test: fluorescence increase titration, one-site fit; type: binding
Arp2/3 complex (yeast) [6] = biological target: Arp2/3 complex (yeast) (Saccharomyces cerevisiae, UniProt P32381+P47117, P32381:G305Y); test: fluorescence increase titration, one-site fit; type: binding
Arp2/3 complex (yeast) [7] = biological target: Arp2/3 complex (yeast) (Saccharomyces cerevisiae, UniProt P32381+P47117, P47117:F362A); test: fluorescence increase titration, one-site fit; type: binding
[8] = biological target: GST-tagged Las17WCA (S. cerevisiae); test: pull-down
Chain of GST-tagged Las17WCA (S. cerevisiae) (Q12446 whole entry): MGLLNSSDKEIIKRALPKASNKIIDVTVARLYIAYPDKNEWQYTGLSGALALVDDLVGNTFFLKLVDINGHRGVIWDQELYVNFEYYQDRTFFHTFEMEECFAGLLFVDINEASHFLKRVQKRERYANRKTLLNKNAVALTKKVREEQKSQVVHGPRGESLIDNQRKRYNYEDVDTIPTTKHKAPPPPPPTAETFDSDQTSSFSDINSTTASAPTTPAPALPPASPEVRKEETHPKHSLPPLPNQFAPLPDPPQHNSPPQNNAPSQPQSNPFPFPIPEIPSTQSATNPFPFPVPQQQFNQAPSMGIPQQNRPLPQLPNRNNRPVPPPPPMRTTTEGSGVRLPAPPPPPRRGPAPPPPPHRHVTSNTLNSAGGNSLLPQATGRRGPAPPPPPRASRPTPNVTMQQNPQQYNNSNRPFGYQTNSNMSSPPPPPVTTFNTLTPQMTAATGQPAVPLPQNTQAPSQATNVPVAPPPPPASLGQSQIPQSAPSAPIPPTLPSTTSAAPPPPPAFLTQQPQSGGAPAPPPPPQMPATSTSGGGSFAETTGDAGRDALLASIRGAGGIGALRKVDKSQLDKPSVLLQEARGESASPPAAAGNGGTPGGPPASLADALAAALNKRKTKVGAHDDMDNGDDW

Kd (Arp2/3 complex (yeast) [1]): 22 ± 4.4 µM
Kd (Arp2/3 complex (yeast) [2]): 2300 ± 100 nM
Kd (Arp2/3 complex (yeast) [3]): 2000 ± 100 nM
Kd (Arp2/3 complex (yeast) [4]): 34.5 ± 2.2 µM
Kd (Arp2/3 complex (yeast) [5]): 2400 ± 200 nM
Kd (Arp2/3 complex (yeast) [6]): 1800 ± 100 nM
Kd (Arp2/3 complex (yeast) [7]): 16.7 ± 4.2 µM
Compound: O=P(O)(O)OP(=O)(O)OP(=O)(O)OC[C@H]1O[C@@H](n2cnc3c2ncn2ccnc32)[C@H](O)[C@@H]1O [etheno-ATP]

Kd [8]: 3.9 µM
Compound: arp2-G302Y Arp2/3 complex (from UniProt P47117 1-449; P38328 1-384; Q05933 1-178; P40518 1-154)

Kd [8]: 4.5 µM
Compound: arp3-G302Y Arp2/3 complex (from UniProt P32381 1-391; P38328 1-384; Q05933 1-178; P40518 1-154)

Kd [8]: 4.5 µM
Compound: wild-type yeast Arp2/3 complex (from UniProt P32381 1-391; P47117 1-449; P38328 1-384; Q05933 1-178; P40518 1-154)

— PMC2171590 (The Journal of Cell Biology, 2005)
